Laboratory results from patent US4904667A, “1H-1,2,4-thiadiazolo(3,4-b)quinazolin-5-one-2,2-dioxides, and a method for increasing the cardiac output of a mammal with them” (Ortho Pharmaceutical Corporation, priority 1989, dated 1990).
Where two headings read alike, the source gives them in different places.

Key:
[1] = target: cyclic nucleotide phosphodiesterase fraction III; assay: Procedure I: Cyclic Nucleotide Phosphodiesterase Assay; format: biochemical
[2] = system: dog tracheal smooth muscle; assay: Procedure II: Inhibition of calcium dependent smooth muscle contraction (KCl-challenged dog tracheal rings); conditions: Canis lupus familiaris, 50 mM KCl contraction, dog trachea
Procedure: INHIBITION OF CALCIUM DEPENDENT SMOOTH MUSCLE CONTRACTION
Farley, J. M. and Miles, P. R. The Sources of Calcium for Acetylcholine-Induced Contractions of Dog Tracheal Smooth Muscle. J. Pharmacol. Exp. Ther. 207: 340-346,l 1978.
Canines, guinea pigs and rabbits
Trachea from dogs killed by excess KCl injection are stored overnight at 4° C. in oxygenated Krebs-Henseleit buffer. Tracheal rings, one cartilage segment wide (5-10 mm), are cut starting from the bronchial end. After cutting the cartilage, the trachealis muscle tissue is suspended in oxygenated Krebs-Henseleit buffer at 37° C. in a 25 ml tissue bath. After a 60 minutes equilibration period, the tissues are challenged with 10 μM carbachol. After 5 minutes the tissues are rinsed and allowed to rest 50 minutes. The tissues are then challenged with 50 mM KCl and, after 30 minutes, the contractions are quantitated. The tissues are then rinsed and reequilibrated for 50 minutes. Test compounds are then added for 10 minutes, and the tissue is rechallenged with 50 mM KCl. After 30 minutes, the contraction is recorded and used to determine the % inhibition of control.
The percent inhibition of smooth muscle contraction is calculated from response data before and after drug treatment. [formula]

Dog = assay: Procedure III: Acute In Vivo Cardiotonic Evaluation (cardiac force in anesthetized dogs); conditions: for Procedure III % Change CF (cardiac force): dose 1.9 mpk, i.v., anesthetized dog, vs pretreatment control
Procedure: Acute In Vivo Cardiotonic Evaluation
Cardiotonic Activity of Amrinone-Win 40680. Alousi, A. A., Farah, A. I., Lester, G. Y. and Opalka, C. J. Circ. Res. 45:666, 1979.
Adult mongrel dogs are anesthetized with sodium pentobarbital and artifically respired. Arterial pressure is recorded via a femoral artery and the pressure pulse is used to trigger a cardiotachometer for heart rate. Left ventricular pressure is measured with a Millar catheter and dP/dt is derived. Cardiac output is determined by measuring ascending aortic blood flow with an electromagnetic flow probe and myocardial contractile force is measured with a Walton Brodie strain gauge sutured to the right ventricle. Lead II EKG is also recorded.
A standard dose of dopamine or dobutamine is administered to assess myocardial responsiveness.
Test compounds are administered by i.v. infusion or bolus administration and the effects on cardiovascular parameters are determined.
Dose related effects of the test compound on blood pressure, heart rate, dP/dt max. (dp/dt represents the rate at which blood pressure rises), cardiac force, and cardiac output are compared to pretreatment control values, expressed as a % change and rated for activity. Statistical evaluations are made using the appropriate parametric test against a vehicle control.

[3] = concentration inhibiting 50% of cyclic nucleotide phosphodiesterase activity, cyclic AMP substrate, pH 7.4, read-out: Procedure I IC50

| Structure (SMILES) | IC50 [1, 3] [µM] | inhibition at 10 µM [2] [%] | inhibition at 2 µM [2] [%] | Procedure III % Change CF (cardiac force) (Dog) [%] | IC50 ([1]; fraction III, read-out: IC50 versus cyclic nucleotide phosphodiesterase fraction III) [µM] | cardiac force increased (Dog; dog, intravenously at 1.9 mg/kg) [%] |
| --- | --- | --- | --- | --- | --- | --- |
| O=c1c2cc(Cl)ccc2nc2n1CS(=O)(=O)N2 [Example 6, 7-Chloro-1H-1,2,4-thiadiazolo[3,4-b]quinazolin-5-one-2,2-dioxide] | 70 | 18 | – | – | – | – |
| O=c1c2cc([N+](=O)[O-])ccc2nc2n1CS(=O)(=O)N2 [Example 2, 7-Nitro-1H-1,2,4-thiadiazolo[3,4-b]quinazolin-5-one-2,2-dioxide] | – | 9 | – | – | – | – |
| O=c1c2cc(Cl)c(Cl)cc2nc2n1CS(=O)(=O)N2 [Example 5, 7,8-Dichloro-1H-1,2,4-thiadiazolo[3,4-b]quinazolin-5-one-2,2-dioxide] | – | – | 11 | – | – | – |
| O=c1c2ccc(Cl)cc2nc2n1CS(=O)(=O)N2 [Example 7, 8-Chloro-1H-1,2,4-thiadiazolo[3,4-b]quinazolin-5-one-2,2-dioxide] | 150 | 31 | – | – | – | – |
| O=c1c2ccccc2nc2n1CS(=O)(=O)N2 [Example 8, 1H-1,2,4-Thiadiazolo[3,4-b]quinazolin-5-one-2,2-dioxide] | 150 | 20 | – | – | – | – |
| COc1ccc2nc3n(c(=O)c2c1OC)CS(=O)(=O)N3 [Example 4, 6,7-Dimethoxy-1H-1,2,4-thiadiazolo[3,4-b]quinazolin-5-one-2,2-dioxide] | – | – | 43 | 22 | – | – |
| CN(C(=O)CCCOc1ccc2nc3n(c(=O)c2c1)CS(=O)(=O)N3)C1CCCCC1 [Example 9, 7-(N-Cyclohexyl-N-methyl-4-amino-4-oxobutyloxy)-1H-1,2,4-thiadiazolo[3,4-b]quinazolin-5-one-2,2-dioxide] | 13 | – | – | 37 | 13 | 37 |
| COc1cc2nc3n(c(=O)c2cc1OC)CS(=O)(=O)N3 [Example 3, 7,8-Dimethoxy-1H-1,2,4-thiadiazolo[3,4-b]quinazolin-5-one-2,2-dioxide] | 35 | – | 13 | 8 | – | – |
